Data on 11 compounds can be found in EP1078634A1, “Medicament for inhibiting NF-kB” (Max Zeller Söhne AG, priority 1999, dated 2001).

A value given as a limit tells only on which side of the number the result lay.

For the first assay, the system named is NF-kB. Put plainly: NF-kB binding to DNA, electrophoretic mobility shift assay (EMSA) with Jurkat T cells. The settings on record: TNF-a stimulation. It counts as cell-based. From the text:
Die in Beispiel 2 hergestellten Substanzen wurden in zellfreien und zellulären Testsystemen nach bekannten Methoden auf NF-kB hemmende Wirkung geprüft. […] Bestimmt wurde die in-vivo und die in-vitro NF-kB Bindung an DNA durch Messung der elektrophoretischen Mobilitätsverschiebung.
Die in vivo Bindung wurde mit Jurkat T-Zellen durchgeführt. Die Zellen wurden während einer Stunde mit verschiedenen Konzentrationen der verschiedenen Extrakte inkubiert und anschliessend mit TNF-a während einer Stunde stimuliert. Total-Protein-Extrakte der Zellen wurden gewonnen und in einem Assay auf elektrophoretische Mobilitätsverschiebung (electrophoretic mobility shift asasy, EMSA) auf NF-kB-bindende Aktivität geprüft.
Die in vitro Bindung wurde ebenfalls mit Jurkat T-Zellen geprüft. Zellextrakte von stimulierten wie unstimulierten Zellen wurden gewonnen. Gleiche Proteinmengen (10-20 µg) wurden 2 Stunden mit Konzentrationsreihen der verschiedenen Isatis-Extrakte inkubiert und schliesslich auf elektrophoretische Mobilitätsverschiebung (EMSA) analysiert.
(In EMSA bound probe runs differently from free probe, usually more slowly.)
For `Nc1ccc2nc3n(c(=O)c2c1)-c1ccc(F)cc1C3=O` [Verbindung 20], the “NF-kB: Grenzkonzentration, bei der eben noch ein Hemmeffekt im EMSA feststellbar ist” value (shortened to “NF-kB: Grenzkonzentration”) was 5 µM/Liter.

As to `CN1CCN(c2ccc3c(=O)n4c(nc3c2)C(=O)c2cc(F)ccc2-4)CC1` [Verbindung 32], the “NF-kB: Grenzkonzentration” value is on record as 10 µM/Liter.

Regarding `CN(CCO)c1ccc2c(=O)n3c(nc2c1)C(=O)c1cc(OC(F)(F)F)ccc1-3` [Verbindung 110], the “NF-kB: Grenzkonzentration” value turned out to be 5 µM/Liter.

With `O=C1c2ccccc2-n2c1nc1ccc(Cl)cc1c2=O` [Verbindung 5], the “NF-kB: Grenzkonzentration” value is given as 50 µM/Liter.

As for `CC1CN(c2cc3c(cc2F)C(=O)c2nc4ccccc4c(=O)n2-3)CCN1C(=O)OC(C)(C)C` (stereo not drawn) [Verbindung 42], the “NF-kB: Grenzkonzentration” value was over 100 µM/Liter.

For `Cc1cc(C)c2nc3n(c(=O)c2c1)-c1ccc(F)cc1C3=O` [Verbindung 24], the “NF-kB: Grenzkonzentration” value is over 100 µM/Liter.

`CCOC(=O)c1ccc2c(c1)C(=O)c1nc3ccccc3c(=O)n1-2` [Verbindung 37]: the “NF-kB: Grenzkonzentration” value is on record as over 100 µM/Liter.

Take `CN(CC(=O)O)c1ccc2c(=O)n3c(nc2c1)C(=O)c1cc(Cl)ccc1-3` [Verbindung 99]: the “NF-kB: Grenzkonzentration” value came to 1 µM/Liter.

Regarding `CCCCCCCCS(=O)(=O)c1ccc2c(c1)C(=O)c1nc3c(OC)cccc3c(=O)n1-2` [Verbindung 69], the “NF-kB: Grenzkonzentration” value is reported as over 100 µM/Liter.

As for `O=C1c2cc(Cl)ccc2-n2c1nc1cc(N3CCOCC3)ccc1c2=O` [Verbindung 86], the “NF-kB: Grenzkonzentration” value was 0,5 µM/Liter.

Regarding `O=C1c2cc(Cl)ccc2-n2c1nc1ccccc1c2=O` [Verbindung 10], the “NF-kB: Grenzkonzentration” value came out at 5 µM/Liter.

The next assay concerns the target T1, COX-2 (Homo sapiens, UniProt P35354).
T1 construct: Dabei wurden Mono Mac 6-Zellen mit unterschiedlichen Konzentrationen der Testsubstanzen während 30 min inkubiert; endogenous in cells; host or cells: Mono Mac 6 cells, LPS-stimulated
T1 sequence (P35354 18-604): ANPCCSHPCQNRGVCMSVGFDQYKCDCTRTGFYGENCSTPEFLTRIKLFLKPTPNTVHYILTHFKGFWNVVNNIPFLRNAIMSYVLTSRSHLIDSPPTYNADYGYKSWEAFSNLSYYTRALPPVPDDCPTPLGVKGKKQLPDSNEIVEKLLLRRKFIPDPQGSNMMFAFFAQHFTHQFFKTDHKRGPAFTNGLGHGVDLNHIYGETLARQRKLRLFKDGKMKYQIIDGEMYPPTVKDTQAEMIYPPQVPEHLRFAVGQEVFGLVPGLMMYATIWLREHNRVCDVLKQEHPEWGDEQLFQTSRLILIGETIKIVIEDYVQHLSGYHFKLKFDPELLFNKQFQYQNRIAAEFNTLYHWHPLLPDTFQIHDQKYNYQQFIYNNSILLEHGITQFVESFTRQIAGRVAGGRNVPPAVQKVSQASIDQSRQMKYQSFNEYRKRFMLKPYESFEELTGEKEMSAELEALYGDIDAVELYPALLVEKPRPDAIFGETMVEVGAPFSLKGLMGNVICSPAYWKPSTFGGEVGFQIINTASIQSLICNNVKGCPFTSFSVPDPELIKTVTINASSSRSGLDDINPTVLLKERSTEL
Put plainly: COX-2 inhibition in LPS-stimulated Mono Mac 6 cells (Keto PGF 1α ELISA, method of Berg et al.). The format is cell-based. The settings on record: COX-2 versus COX-1, in words. The method, then: Die Bestimmung der COX-2 inhibitorischen Wirkung der gemäss Beispiel 2 synthetisierten Verbindungen wurde mit Mono Max 6-Zellen nach der Methode von Berg et al., J. Pharmaco. Toxicol.
Dabei wurden Mono Mac 6-Zellen mit unterschiedlichen Konzentrationen der Testsubstanzen während 30 min inkubiert, anschliessend Lipopolysaccharid (LPS, 100 ng/ml) zupipettiert und während weiteren 6 Stunden inkubiert. Anschliessend wurde Arachidonsäure zugegeben (Endkonz. 30 µM), während 15 Min. inkubiert und das gebildete Keto PGF 1α mittels ELISA bestimmt.
In einer Variante wurden Testsubstanz und LPS zeitgleich eingesetzt. Die Messung der COX1 Hemmung erfolgte in HEL-Zellen nach der Methode von Berg et al., J. Pharmacol. Toxicol. […] Dabei wurden HEL Zellen mit unterschiedlichen Konzentrationen der Testsubstanzen während 30 Min. inkubiert, anschliessend Arachidonsäure zugesetzt (Endkonz. 30 uM), während 15 Min. inkubiert und das gebildete Tromboxan B2 mittels ELISA gemessen.
(In an ELISA, binding on a coated surface is turned into a signal by an enzyme label.)
Take `O=C1c2cc(Cl)ccc2-n2c1nc1cc(N3CCOCC3)ccc1c2=O` [Verbindung 86]: the “präferentielle Hemmung der induzierbaren COX-2” value was “deutliche präferentielle Hemmung der induzierbaren COX-2”.
